One assay relates to Jeko-1 cells. Description: CellTiter-Glo 2.0 Cytotoxicity Assay. It counts as cell-based. The conditions noted are these: Homo sapiens, JeKo-1, read-out: Jeko-1 EC50 (nM), Jeko-1 cells, 3000 cells/well; compounds added Day 1; CellTiter-Glo 2.0 luminescence read on Day 4 or 5. As for the experimental part:
Reaction progress and synthetic intermediate analysis were assessed by LCMS (UV detection with ESI, APCI, or other mass detection) when applicable using a MeCN/water gradient with either TFA, formic acid, or NH4HCO3 modifier. Silica gel and reverse-phase flash column chromatography were conducted with commercially available pre-packed columns. Reverse-phase preparative HPLC purification was performed on preparative HPLC instruments with UV and MS detection using a MeCN/water gradient with either TFA, formic acid, or NH4OH modifier. ^1H NMR spectra were collected at room temperature, and chemical shifts are reported in ppm relative to the residual proteo-solvent signals, and multiplicities, coupling constants (where applicable), and signal integrations are listed parenthetically. Unless otherwise noted, all EC50 data presented in tables refers to the CellTiter-Glo® 2.0 Cytotoxicity Assay that is described in the Biological Assay section.
CellTiter-Glo® 2.0 Cytotoxicity Assay
Step 1: Seed 384-Well Plates for Assay (45 μL Per Well) on Day 0
Jeko-1 cells were quickly thawed in a cryo-vial by incubating them in a 37° C. water bath for <1 min until there is just a small bit of ice left in the vial. The vial was promptly removed and wiped down with 70% ethanol. The cells were transferred from the vial to a sterile centrifuge tube containing 8 mL of pre-warmed cell culture medium. The vial was flushed with an additional 1 mL of medium to ensure complete transfer of cells to the centrifuge tube. The cells were then centrifuged at 150×g for 5 minutes. The supernatant was aspirated, and the cell pellet was resuspended in 10-20 mL cell culture medium. Cells were counted using Vi-cell and prepared 6.6×10^4 cells/ml, 3000 cells/45 μL per well. Then added 45 μL/well of cells into Corning® 384-well Low Flange White Flat Bottom Polystyrene TC-treated Microplates (Corning, Cat #3570) using Standard Cassette Combi (if needed, dispense 1 dummy plate at 20 μL to help normalize Combi, using medium speed). The plates were spun down at 150×g for 30 seconds.
Step 2: Add Compounds on Day 1
The compound plates and reference compound stock were taken out and allowed to thaw at RT. The tubes were centrifuged at 2000×g for 30 seconds. The 10× Intermediate assay plates (Greiner plate, Cat #781280) were prepared using an Echo liquid handler. Proper buffer (HBSS (Gibco, Cat #14025-092)+10 mM HEPES (Gibco, Cat #15630-080)+0.1% BSA (Sigma, Cat #A9576)) were used to make serial dilutions. Media (no cells) was used for Max_E. Compound (5 μL of 10×) was transferred from intermediate plate to assay plate using a Bravo liquid handler using a very slow speed so the cell monolayer wasn't disturbed. The plates were spun down at 150×g for 30 seconds.
Step 3: CellTiter-Glo 2.0 Assay (Promega, Cat #G9242) on Day 4 or 5 (CellTiter-Glo Kit Stored at −70° C.)
The CellTiter-Glo® 2.0 Reagent was thawed at 4° C. overnight, taking care not to expose the reagent to temperatures above 25° C.). The kit was equilibrated to RT for approximately 30 minutes. CellTiter-Glo® 2.0 Reagent (20 μl) was added to 50 μl of medium containing cells using Standard Cassette Combi. The contents were mixed for 2-3 minutes on an orbital shaker to induce cell lysis. The plates were spun down at 150×g for 30 seconds. The plates were allowed to incubate at RT for 5 minutes to stabilize the luminescent signal.
Illustrative compounds of the present disclosure were tested in the above assay in Example 15, and results are provided in the Table 9 below: […]
Take `CC[C@@]1(O)C(=O)OCc2c1cc1n(c2=O)Cc2c-1nc1cc(F)c(C)c3c1c2[C@@H](NC(=O)[C@H](O)CCO)CC3` (single isomer, unassigned) [Compound 1]: the EC50 was found to be 1.4 nM. As to `CC[C@@]1(O)C(=O)OCc2c1cc1n(c2=O)Cc2c-1nc1cc(F)c(C)c3c1c2[C@@H](NC(=O)C(F)(F)C(C)O)CC3` (single isomer, unassigned) [Compound 7], the EC50 came to 1.7 nM.

Turning to `CC[C@@]1(O)C(=O)OCc2c1cc1n(c2=O)Cc2c-1nc1cc(F)c(C)c3c1c2[C@@H](NC(=O)C(CO)C(F)(F)F)CC3` (single isomer, unassigned) [Compound 10], the EC50 was 4.4 nM. Still for that read-out and setting: then `CC[C@@]1(O)C(=O)OCc2c1cc1n(c2=O)Cc2c-1nc1cc(F)c(C)c3c1c2[C@@H](NC(=O)C(N)C(F)(F)F)CC3` (single isomer, unassigned) [Compound 14], with 2.8 nM; and `CC[C@@]1(O)C(=O)OCc2c1cc1n(c2=O)Cc2c-1nc1cc(F)c(C)c3c1c2[C@@H](NC(=O)C(C)(N)C(F)(F)F)CC3` (single isomer, unassigned) [Compound 16], with 1.6 nM; and `CC[C@@]1(O)C(=O)OCc2c1cc1n(c2=O)Cc2c-1nc1cc(F)c(C)c3c1c2[C@@H](NC(=O)C(CO)C1CC1)CC3` (single isomer, unassigned) [Compound 22], with 4.3 nM. Still for that read-out and setting: then `CC[C@@]1(O)C(=O)OCc2c1cc1n(c2=O)Cc2c-1nc1cc(F)c(C)c3c1c2[C@@H](NC(=O)C(C)(F)CO)CC3` (single isomer, unassigned) [Compound 36], with 2.4 nM. Still for that read-out and setting: in the case of `CC[C@@]1(O)C(=O)OCc2c1cc1n(c2=O)Cc2c-1nc1cc(F)c(C)c3c1c2[C@@H](NC(=O)C(C)(CCO)C(F)F)CC3` (single isomer, unassigned) [Compound 39] it was 4.9 nM; in that of `CC[C@@]1(O)C(=O)OCc2c1cc1n(c2=O)Cc2c-1nc1cc(F)c(C)c3c1c2[C@@H](NC(=O)[C@@H](O)CCO)CC3` [Compound 2], 6.6 nM. As to `CC[C@@]1(O)C(=O)OCc2c1cc1n(c2=O)Cc2c-1nc1cc(F)c(C)c3c1c2[C@@H](NC(=O)[C@H](O)C(C)(C)CO)CC3` [Compound 3], the EC50 came out at 4.1 nM. The same measure, in the same setting: then `CC[C@@]1(O)C(=O)OCc2c1cc1n(c2=O)Cc2c-1nc1cc(F)c(C)c3c1c2[C@@H](NC(=O)C(C)(CO)CO)CC3` [Compound 6], with 2.9 nM; and `CC[C@@]1(O)C(=O)OCc2c1cc1n(c2=O)Cc2c-1nc1cc(F)c(C)c3c1c2[C@@H](NC(=O)C(F)(F)CO)CC3` [Compound 9], with 4 nM; and `CC[C@@]1(O)C(=O)OCc2c1cc1n(c2=O)Cc2c-1nc1cc(F)c(C)c3c1c2[C@@H](NC(=O)C(C)(N)C(F)F)CC3` (some centres unmarked) [Compound 13], with 4.2 nM. On to `CC[C@@]1(O)C(=O)OCc2c1cc1n(c2=O)Cc2c-1nc1cc(F)c(C)c3c1c2[C@@H](NC(=O)C(C)(N)C1CC1)CC3` (some centres unmarked) [Compound 20], for which the EC50 was found to be 5.2 nM.

For the compound `CC[C@@]1(O)C(=O)OCc2c1cc1n(c2=O)Cc2c-1nc1cc(F)c(C)c3c1c2[C@@H](NC(=O)[C@H](O)CCOC(F)F)CC3` [Compound 21, (R)-4-(difluoromethoxy)-N-((1S,9S)-9-ethyl-5-fluoro-9-hydroxy-4-methyl-10,13-dioxo-2,3,9,10,13,15-hexahydro-1H,12H-benzo[de]pyrano[3′,4′: 6,7]indolizino[1,2-b]quinolin-1-yl)-2-hydroxybutanamide], the EC50 was 3.6 nM.

Staying with this assay, now noted: Homo sapiens; Jeko-1 cells, 3000 cells/well; compounds added Day 1; CellTiter-Glo 2.0 luminescence read on Day 4 or 5; read-out: Jeko-1 EC50.
For the compound `CC[C@@]1(O)C(=O)OCc2c1cc1n(c2=O)Cc2c-1nc1cc(F)c(C)c3c1c2[C@@H](NC(=O)C(C)(C)CO)CC3` [Compound 24, N-((1S,9S)-9-ethyl-5-fluoro-9-hydroxy-4-methyl-10,13-dioxo-2,3,9,10,13,15-hexahydro-1H,12H-benzo[de]pyrano[3′,4′: 6,7]indolizino[1,2-b]quinolin-1-yl)-3-hydroxy-2,2-dimethylpropanamide], the EC50 was determined as 1.8 nM. On the same count and under the same terms, then `CC[C@@]1(O)C(=O)OCc2c1cc1n(c2=O)Cc2c-1nc1cc(F)c(C)c3c1c2[C@@H](NC(=O)C[C@H](C)O)CC3` [Compound 25], with 2.6 nM; and `CC[C@@]1(O)C(=O)OCc2c1cc1n(c2=O)Cc2c-1nc1cc(F)c(C)c3c1c2[C@@H](NC(=O)C[C@@H](C)O)CC3` [Compound 26], with 2.9 nM; and `CC[C@@]1(O)C(=O)OCc2c1cc1n(c2=O)Cc2c-1nc1cc(F)c(C)c3c1c2[C@@H](NC(=O)CCO)CC3` [Compound 27], with 3.1 nM.

The same assay, now with this note: read-out: Jeko-1 EC50; Jeko-1 cells, 3000 cells/well; compounds added Day 1; CellTiter-Glo 2.0 luminescence read on Day 4 or 5.
Consider `CC[C@@]1(O)C(=O)OCc2c1cc1n(c2=O)Cc2c-1nc1cc(F)c(C)c3c1c2[C@@H](NC(=O)C(C)(O)CO)CC3` (single isomer, unassigned) [Compound 4], for which the EC50 came to 1.2 nM. Regarding `CC[C@@]1(O)C(=O)OCc2c1cc1n(c2=O)Cc2c-1nc1cc(F)c(C)c3c1c2[C@@H](NC(=O)C(C)(O)CO)CC3` (single isomer, unassigned) [Compound 5], the EC50 was 6.7 nM. The same measure, in the same setting: in the case of `CC[C@@]1(O)C(=O)OCc2c1cc1n(c2=O)Cc2c-1nc1cc(F)c(C)c3c1c2[C@@H](NC(=O)C(F)(F)C(C)O)CC3` (single isomer, unassigned) [Compound 8] it was 1.6 nM; in that of `CC[C@@]1(O)C(=O)OCc2c1cc1n(c2=O)Cc2c-1nc1cc(F)c(C)c3c1c2[C@@H](NC(=O)C(CO)C(F)(F)F)CC3` (single isomer, unassigned) [Compound 11], 5.3 nM; in that of `CC[C@@]1(O)C(=O)OCc2c1cc1n(c2=O)Cc2c-1nc1cc(F)c(C)c3c1c2[C@@H](NC(=O)C(N)C(F)(F)F)CC3` (single isomer, unassigned) [Compound 15], 2.9 nM.

Regarding `CC[C@@]1(O)C(=O)OCc2c1cc1n(c2=O)Cc2c-1nc1cc(F)c(C)c3c1c2[C@@H](NC(=O)C(C)(N)C(F)(F)F)CC3` (single isomer, unassigned) [Compound 17], the EC50 was determined as 2 nM. Still for that read-out and setting: in the case of `CC[C@@]1(O)C(=O)OCc2c1cc1n(c2=O)Cc2c-1nc1cc(F)c(C)c3c1c2[C@@H](NC(=O)C(N)(Cc1ccccc1)C(F)(F)F)CC3` (single isomer, unassigned) [Compound 18] it was 44 nM.

Take `CC[C@@]1(O)C(=O)OCc2c1cc1n(c2=O)Cc2c-1nc1cc(F)c(C)c3c1c2[C@@H](NC(=O)C(N)(Cc1ccccc1)C(F)(F)F)CC3` (single isomer, unassigned) [Compound 19]: the EC50 is 5.7 nM. Same read-out and setting: then `CC[C@@]1(O)C(=O)OCc2c1cc1n(c2=O)Cc2c-1nc1cc(F)c(C)c3c1c2[C@@H](NC(=O)C(CO)C1CC1)CC3` (single isomer, unassigned) [Compound 23], with 4.6 nM; and `CC[C@@]1(O)C(=O)OCc2c1cc1n(c2=O)Cc2c-1nc1cc(F)c(C)c3c1c2[C@@H](NC(=O)C(F)CO)CC3` (single isomer, unassigned) [Compound 34], with 4.3 nM. Still for that read-out and setting: in the case of `CC[C@@]1(O)C(=O)OCc2c1cc1n(c2=O)Cc2c-1nc1cc(F)c(C)c3c1c2[C@@H](NC(=O)C(F)CO)CC3` (single isomer, unassigned) [Compound 35] it was 1.5 nM; in that of `CC[C@@]1(O)C(=O)OCc2c1cc1n(c2=O)Cc2c-1nc1cc(F)c(C)c3c1c2[C@@H](NC(=O)C(C)(F)CO)CC3` (single isomer, unassigned) [Compound 37], 3.1 nM. On the same count and under the same terms, in the case of `CC[C@@]1(O)C(=O)OCc2c1cc1n(c2=O)Cc2c-1nc1cc(F)c(C)c3c1c2[C@@H](NC(=O)C(C)(CCO)C(F)F)CC3` (single isomer, unassigned) [Compound 40] it was 4.6 nM.

These data come from patent US20240116945A1, “EXATECAN-DERIVED TOPOISOMERASE-1 INHIBITORS PHARMACEUTICAL COMPOSITIONS, AND USES THEREOF” (Merck Sharp & Dohme LLC, priority 2022, published 2024).
